# Results reported in the supplement of paper PMC7029842.
# ± gives the standard deviation of the averaged measurements.
# Key:
# Assay in all cases: minimum inhibitory concentration (MIC)
# Details in all cases: incubation time: 18 h
# [1] = test system: Burkholderia contaminans ISS isolate s52
# [2] = test system: Burkholderia cepacia ISS isolate s28
# [3] = test system: Burkholderia cepacia ATCC25416
# [4] = test system: Burkholderia contaminans ISS isolate s56
# [5] = test system: Burkholderia cepacia ISS isolate s36
# [6] = test system: Burkholderia cepacia ISS isolate s33
# [7] = test system: Burkholderia cepacia ISS isolate s9
# [8] = test system: Burkholderia contaminans ISS isolate s54
# [9] = test system: Burkholderia cepacia ISS isolate s39
# [10] = test system: Burkholderia cepacia ISS isolate s35
# [11] = test system: Burkholderia cepacia ISS isolate s18
# [12] = test system: Burkholderia cepacia ISS isolate s31
# [13] = test system: Burkholderia contaminans ISS isolate s53
# [14] = test system: Burkholderia cepacia ISS isolate s12
# [15] = test system: Burkholderia cepacia ISS isolate s37
# [16] = test system: Burkholderia cepacia ISS isolate s22
# [17] = test system: Burkholderia cepacia ISS isolate s24
# [18] = test system: Burkholderia cepacia ISS isolate s57
# [19] = test system: Burkholderia cepacia ISS isolate s23
# [20] = test system: Burkholderia cepacia ISS isolate s20
# [21] = test system: Burkholderia contaminans ISS isolate s47
# [22] = test system: Burkholderia cepacia ISS isolate s25
# [23] = test system: Burkholderia contaminans J2956
# [24] = test system: Burkholderia cepacia ISS isolate s41
# [25] = test system: Burkholderia cepacia ISS isolate s16
# [26] = test system: Burkholderia cepacia ISS isolate s15
SMILES,minimum inhibitory concentration [1],minimum inhibitory concentration [2],minimum inhibitory concentration [3],minimum inhibitory concentration [4],minimum inhibitory concentration [5],minimum inhibitory concentration [6],minimum inhibitory concentration [7],minimum inhibitory concentration [8],minimum inhibitory concentration [9],minimum inhibitory concentration [10],minimum inhibitory concentration [11],minimum inhibitory concentration [12],minimum inhibitory concentration [13],minimum inhibitory concentration [14],minimum inhibitory concentration [15],minimum inhibitory concentration [16],minimum inhibitory concentration [17],minimum inhibitory concentration [18],minimum inhibitory concentration [19],minimum inhibitory concentration [20],minimum inhibitory concentration [21],minimum inhibitory concentration [22],minimum inhibitory concentration [23],minimum inhibitory concentration [24],minimum inhibitory concentration [25],minimum inhibitory concentration [26]
CC(C)(O/N=C(\C(=O)N[C@@H]1C(=O)N2C(C(=O)[O-])=C(C[n+]3ccccc3)CS[C@H]12)c1csc(N)n1)C(=O)O [ceftazidime],8 µg/mL,4 µg/mL,12.7 ± 4.6 µg/mL,8 µg/mL,4 µg/mL,4 µg/mL,4 µg/mL,8 µg/mL,3.17 ± 1.1 µg/mL,3.17 ± 1.1 µg/mL,4 µg/mL,4 µg/mL,8 µg/mL,4 µg/mL,2 ± 2 µg/mL,4 µg/mL,4 µg/mL,3.17 ± 1.1 µg/mL,4 µg/mL,4 µg/mL,8 µg/mL,4 µg/mL,8 µg/mL,3.17 ± 1.1 µg/mL,4 µg/mL,4.58 ± 1.1 µg/mL
CN(C)c1ccc(O)c2c1C[C@H]1C[C@H]3[C@H](N(C)C)C(O)=C(C(N)=O)C(=O)[C@@]3(O)C(O)=C1C2=O [minocycline],2 µg/mL,10.1 ± 15 µg/mL,1.59 ± 0.58 µg/mL,2.52 ± 1.1 µg/mL,6.35 ± 6.9 µg/mL,12.7 ± 4.6 µg/mL,6.35 ± 6.9 µg/mL,2 µg/mL,6.35 ± 6.9 µg/mL,8 µg/mL,6.35 ± 7 µg/mL,4 µg/mL,2 µg/mL,3.17 ± 1.1 µg/mL,6.35 ± 2.3 µg/mL,6.35 ± 2.3 µg/mL,12.7 ± 14 µg/mL,2 µg/mL,8 ± 6.1 µg/mL,6.35 ± 7 µg/mL,3.17 ± 3.5 µg/mL,8 ± 6.1 µg/mL,2 µg/mL,8 ± 6.1 µg/mL,5.04 ± 3.5 µg/mL,12.7 ± 4.6 µg/mL
